“And” between values parts separate entries of the source, which are not always exact repeats. Equal values may be shown once. Read-outs that look alike come from different tables or passages of the source.
Tests used:
α1β3 GABAAR = target: T1, α1β3 GABAAR (UniProt P28472+P62813); experiment: Two-electrode voltage clamp in Xenopus laevis oocytes, WT receptor; type: cell-based; details: for Potentiation of GABA-elicited currents: 0.3 μM GABA, 10 μM neurosteroid, oocytes; for % of desensitization (reduction of steady-state current): 1 mM GABA, 3β5αP 3 μM, KK148 10 μM, KK150 10 μM, WT
T1 construct: expressed in transfected cells; host or cells: Xenopus laevis oocytes injected with cRNA (α1:β3 5:1)
Experimental: The wild-type and mutant α1β3 GABAAR were expressed in oocytes from the African clawed frog (Xenopus laevis). Frogs were purchased from Xenopus 1 (Dexter, MI), and housed and cared for in a Washington University Animal Care Facility under the supervision of the Washington University Division of Comparative Medicine. Harvesting of oocytes was conducted under the Guide for the Care and Use of Laboratory Animals as adopted and promulgated by the National Institutes of Health. The animal protocol (No. 20180191) was approved by the Animal Studies Committee of Washington University in St. Louis. The oocytes were injected with a total of 12 ng cRNA. The ratio of cRNAs was 5:1 ratio (α1:β3) to minimize the expression of β3 homomeric receptors. Following injection, the oocytes were incubated in ND96 (96 mM NaCl, 2 mM KCl, 1.8 mM CaCl2, 1 mM MgCl2, 5 mM HEPES; pH 7.4) with supplements (2.5 mM Na pyruvate, 100 U/ml penicillin, 100 μg/ml streptomycin and 50 μg/ml gentamycin) at 16°C for 2 days prior to conducting electrophysiological recordings. The electrophysiological recordings were conducted at room temperature using standard two-electrode voltage clamp. The oocytes were clamped at −60 mV. The chamber (RC-1Z, Warner Instruments, Hamden, CT) was perfused with ND96 at 5–8 ml/min. Solutions were gravity-applied from 30 ml glass syringes with glass luer slips via Teflon tubing. The current responses were amplified with an OC-725C amplifier (Warner Instruments, Hamden, CT), digitized with a Digidata 1200 series digitizer (Molecular Devices), and stored using pClamp (Molecular Devices). Current traces were analyzed with Clampfit (Molecular Devices). […] The stock solution of muscimol was made at 20 mM in ND96 and stored at 4°C. The steroids were dissolved in DMSO at 10–20 mM and stored at room temperature.
The converted current traces were analyzed in the framework of the three-state Resting-Open-Desensitized activation model ([Germann et al., 2019a]; [Germann et al., 2019b]). The model enables analysis and prediction of peak responses using four parameters that characterize the extent of constitutive activity (termed L; L = Resting/Open), affinity of the resting receptor to agonist (KC), affinity of the open receptor to agonist (KO), and the number of agonist binding sites (N). Analysis and prediction of steady-state responses requires an additional parameter, termed Q, that describes the equilibrium between open and desensitized receptors (Q = Open/Desensitized).
The Popen of the peak response is expressed as: Popen,peak=1/1+LΓ and the Popen of the steady-state response as: Popen,steady−state=1/1+1/Q+LΓ where Γ=[(1+[X]/KC)/(1+[X]/KO)]^N
[X]is the concentration of agonist present, and other terms are as described above. In practice, the value of LΓ was calculated using the experimentally determined Popen of the peak response, and then used as a fixed value in estimating Q from Popen,steady-state.
The Pdesensitized was calculated using: Pdesensitized=1/1+Q+QLΓ
Calculated probabilities (e.g. Popen, Pdesentitized) are reported as mean ± SD.

α1β3(Y284F) GABAAR = target: T2, α1β3(Y284F) GABAAR (UniProt P28472+P62813, Y309F); experiment: [3H]muscimol binding to HEK cell membranes, β3 intrasubunit site mutant; parameters: species or system rat α1, human β3; details: for Emax (% of control) of [3H]muscimol binding: 100% means no effect
T2 construct: expressed in transfected cells; host or cells: HEK293S GnTI- (ATCC CRL-3022), transient
Experimental: (§1) The human α1 and β3 GABAAR subunits were subcloned into pcDNA3 for molecular manipulations and cRNA synthesis. Using QuikChange Site-Directed Mutagenesis Kit (Agilent Technologies, Santa Clara, CA), a FLAG tag was first added to the α1 subunit then an 8xHis tag was added to generate the following His-FLAG tag tandem ([…]), inserted between the fourth and fifth residues of the mature peptide. The α1 and β3 subunits were then transferred into the pcDNA4/TO and pcDNA5/TO vectors (Thermo Fisher Scientific), respectively, for tetracycline inducible expression. Transient expression was done using the GABAAR subunits rat α1FLAG ([Ueno et al., 1996]) and human β3 obtained from Geoffrey White (Neurogen, Branford, CT), each were subcloned into pcDNA3 for molecular manipulations and cRNA synthesis. Point mutations were generated using the QuikChange Site-Directed Mutagenesis Kit (Agilent) and the coding region was fully sequenced prior to use. The cDNAs were linearized with XbaI (NEB Labs, Ipswich, MA), and the cRNAs were generated using T7 mMessage mMachine (Ambion, Austin, TX).
(§2) [^3H]muscimol-binding assays were performed using a previously described method ([Chen et al., 2019]). […] Assay tubes were incubated for 1 hr on ice in the dark. […] Membranes were collected on Whatman/GF-C glass filter papers using a Brandel cell harvester (Gaithersburg, MD). To perform [^3H]muscimol binding isotherms, 100 μg/ml aliquots of membrane protein were incubated with 0.3 nM–1 μM [^3H]muscimol for 1 hr on ice in the dark. The specific activity for [^3H]muscimol concentrations from 30 nM to 1 μM was reduced to 2 Ci/mmol by dilution with nonradioactive muscimol. The membranes were collected on Whatman/GF-B glass filter papers using a vacuum manifold. […] For [^3H]muscimol-binding experiments examining competitive interactions between neurosteroids, the combined neurosteroids (0.3 μM 3α5αP or 3 μM KK148 ±30 μM KK150) or the same volume of dimethyl sulfoxide (DMSO) were added to the membranes which were then incubated with 3 nM [^3H]muscimol on ice for 1 hr. Time courses of neurosteroid [^3H]muscimol binding enhancement were examined by adding 10 µM of neurosteroids (3α5αP, 3β5αP) to membranes that had been fully equilibrated with 3 nM [^3H]muscimol for 1 hr on ice; binding was then measured as a function of time at 1, 3, 10, 30, 60 min. The membranes were collected on Whatman/GF-B glass filter papers using a vacuum manifold. Radioactivity bound to the filters was measured by liquid scintillation spectrometry using Bio-Safe II (Research Products International, Mount Prospect, IL).

α1(N408A/Y411F)β3 GABAAR = target: T3, α1(N408A/Y411F)β3 GABAAR (UniProt P28472+P62813, N434A/Y437F); experiment: [3H]muscimol binding to HEK cell membranes, α1 intrasubunit site mutant; parameters: species or system rat α1, human β3; details: for Emax (% of control) of [3H]muscimol binding: 100% means no effect; for Bmax of [3H]muscimol binding isotherm in the presence of the modulator: etomidate 100 μM, 3α5αP 30 μM, KK148 30 μM, control 0.90 ± 0.18
T3 construct: expressed in transfected cells; host or cells: HEK293S GnTI- (ATCC CRL-3022), transient
Experimental: as §1, §2

[1] = α1(N408A/Y411F)β3, 3 nM [3H]muscimol

Structure (SMILES)	Potentiation of GABA-elicited currents (α1β3 GABAAR)	% of desensitization (reduction of steady-state current) (α1β3 GABAAR)	Hill slope for modulation of [3H]muscimol binding (α1β3(Y284F) GABAAR; α1β3(Y284F), 3 nM [3H]muscimol)	Emax (% of control) of [3H]muscimol binding (α1β3(Y284F) GABAAR; α1β3(Y284F), 3 nM [3H]muscimol)	Hill slope for modulation of [3H]muscimol binding (α1(N408A/Y411F)β3 GABAAR; [1])	Emax (% of control) of [3H]muscimol binding (α1(N408A/Y411F)β3 GABAAR; [1])	Bmax of [3H]muscimol binding isotherm in the presence of the modulator (α1(N408A/Y411F)β3 GABAAR; α1(N408A/Y411F)β3) [pmol/mg]	EC50 (α1(N408A/Y411F)β3 GABAAR) [nM]	further results
C#CCCO[C@H]1CC[C@H]2[C@@H]3CC[C@H]4CC5(CC[C@]4(C)[C@H]3CC[C@]12C)N=N5 [KK148]	absence of potentiation	27.2 ± 6.0%	1.35 ± 0.13	**357.2 ± 8.1 % of control	0.73 ± 0.23	**161.7 ± 3.5 % of control	0.85 ± 0.22	–	EC50 (α1β3(Y284F) GABAAR; α1β3(Y284F), 3 nM [3H]muscimol, read-out: EC50 for modulation of [3H]muscimol binding): 1790 ± 440 nM; EC50 (α1(N408A/Y411F)β3 GABAAR; α1(N408A/Y411F)β3, 3 nM [3H]muscimol, read-out: EC50 for modulation of [3H]muscimol binding): 1630 ± 530 nM
C#CCCO[C@@H]1CC[C@H]2[C@@H]3CC[C@H]4CC5(CC[C@]4(C)[C@H]3CC[C@]12C)N=N5 [KK150]	absence of potentiation	2.1 ± 0.7%	–	–	–	–	–	–	–
CC(=O)[C@H]1CC[C@H]2[C@@H]3CC[C@H]4C[C@@H](O)CC[C@]4(C)[C@H]3CC[C@]12C [3β5αP, epi-allopregnanolone]	absence of potentiation	~ 25% and 23.0 ± 2.8%	–	**148.6 ± 4.9 % of control	2.25 ± 0.92	**124.3 ± 2.6 % of control	–	610 ± 260	Calculated steady-state Pdesensitized (α1β3 GABAAR; 20 nM muscimol + 3 µM 3β5αP): 0.2168; Steady-state Popen (α1β3 GABAAR; 20 nM muscimol + 3 µM 3β5αP): 0.009 ± 0.004; Popen of the steady-state response (α1β3 GABAAR; 1 mM GABA + 3 µM 3β5αP): 0.077 ± 0.013; Sum of (Popen + Pdesensitized) (α1β3 GABAAR; 1 mM GABA + 3 µM 3β5αP): 0.97; Steady-state Pdesensitized (α1β3 GABAAR; 1 mM GABA + 3 µM 3β5αP, Resting-Open-Desensitized model): 0.892; Effect on peak current amplitude (α1β3 GABAAR; co-application of 3 µM 3β5αP with 1 mM GABA): does not reduce; Effect on decay rate of GABA-elicited currents (α1β3 GABAAR; prolonged co-application of 1 mM GABA + 3 µM 3β5αP): increases
CC(=O)[C@H]1CC[C@H]2[C@@H]3CC[C@H]4C[C@H](O)CC[C@]4(C)[C@H]3CC[C@]12C [3α5αP, allopregnanolone]	potentiation	–	0.87 ± 0.16	342.3 ± 13.9 % of control	0.87 ± 0.44	**146.0 ± 9.3 % of control	0.93 ± 0.16	2300	EC50 (α1β3(Y284F) GABAAR): 190 ± 40 nM; Decrease of enhancement of [3H]muscimol binding by mutation (α1(N408A/Y411F)β3 GABAAR; α1 intrasubunit site mutation vs WT): ~ 80%
NCc1cc(=O)[nH]o1 [muscimol]	–	–	–	–	–	–	–	–	Peak Popen (α1β3 GABAAR; 20 nM muscimol): 0.012 ± 0.004; Calculated steady-state Pdesensitized (α1β3 GABAAR; 20 nM muscimol alone): 0.1001; Steady-state Popen (α1β3 GABAAR; 20 nM muscimol alone): 0.011 ± 0.004; Bmax of [3H]muscimol binding isotherm (α1β3(Y284F) GABAAR; α1β3(Y284F)): 10.6 ± 0.9 (P > 0.99 vs. WT) pmol/mg; Kd (α1β3(Y284F) GABAAR; α1β3(Y284F), read-out: Kd of [3H]muscimol binding isotherm): 46.6 ± 3.8 nM; Bmax of [3H]muscimol binding isotherm (α1(N408A/Y411F)β3 GABAAR; α1(N408A/Y411F)β3): 0.9 ± 0.1 (*P < 0.01 vs. WT) pmol/mg; Kd (α1(N408A/Y411F)β3 GABAAR; α1(N408A/Y411F)β3, read-out: Kd of [3H]muscimol binding isotherm): 60.7 ± 7.5 nM
